What all share (type): cell-based
For assay [1], the target named is T1, tyrosinase (Mus musculus, UniProt P11344).
T1 construct: endogenous in cells; host or cells: B16F10 melanoma cells (α-MSH stimulated)
T1 sequence (P11344 19-533): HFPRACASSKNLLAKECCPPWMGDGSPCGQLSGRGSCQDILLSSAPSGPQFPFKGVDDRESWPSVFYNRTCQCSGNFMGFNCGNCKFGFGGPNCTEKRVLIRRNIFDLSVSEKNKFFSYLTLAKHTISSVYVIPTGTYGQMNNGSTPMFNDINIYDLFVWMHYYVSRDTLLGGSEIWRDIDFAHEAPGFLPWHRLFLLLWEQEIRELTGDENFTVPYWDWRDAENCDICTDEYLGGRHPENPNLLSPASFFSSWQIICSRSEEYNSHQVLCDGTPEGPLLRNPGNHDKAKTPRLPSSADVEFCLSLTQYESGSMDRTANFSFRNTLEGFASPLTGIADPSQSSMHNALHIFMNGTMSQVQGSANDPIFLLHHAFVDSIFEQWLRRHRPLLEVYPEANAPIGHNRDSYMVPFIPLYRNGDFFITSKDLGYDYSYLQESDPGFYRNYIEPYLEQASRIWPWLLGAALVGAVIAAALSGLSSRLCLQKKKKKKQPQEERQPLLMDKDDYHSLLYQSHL
Description: Tyrosinase activity (L-DOPA, dopachrome) in α-MSH-stimulated B16F10 melanoma cells. Conditions: 200 nM α-MSH, fucosterol 5, 10, 20 μM, 48 hrs, P<0.01, FIG. 4. The procedure:
B16F10 melanoma cells were incubated in a DMEM medium including 10% fetal bovine serum and then added in a 6-well plate with 2.5×10^5 cell/mL (the final volume of 3 mL). After being incubated for 24 hrs, the medium was removed and fucosterol which was dissolved in the DMEM medium including 200 nM α-MSH was treated at 5, 10, and 20 μM concentrations, respectively. After 48 hrs, the incubated medium was removed from the 6-well plate and PBS including 1% Triton X-100 was added to collect the cells. The collected cells were centrifuged for 10 min and 150 μL of a supernatant was put in a 96-well plate and 50 μL of L-3,4-dihydroxyphenylalanine (L-DOPA) was added. With respect to an amount of dopachrome generated after incubated for 30 min at 37° C., absorbance was measured at 475 nm by using a microplate reader (Versa max, Sunnyvale, Calif., USA). In this case, cells without the fucosterol were set to a control group and the tyrosinase activity degree was measured in the control group and cells treated with the fucosterol. According to Equation 2 below, the tyrosinase activity compared with the control group was calculated and the result was illustrated in FIG. 4. Tyrosinase activity (%) compared with control group=Reaction absorbance of each test material/Reaction absorbance of control group×100 [Equation 2]

For assay [2], the system named is TRP-2 (tyrosinase-related protein 2). Description: TRP-2 protein expression (western blot) in B16F10 melanoma cells. Conditions: 200 nM α-MSH, fucosterol 5 and 20 μM, 24 hrs, FIG. 6. The procedure: B16F10 melanoma cells were incubated in a DMEM medium including 10% fetal bovine serum and then added in a 6-well plate with 2.5×10^5 cell/mL (the final volume of 3 mL). After being incubated for 24 hrs, the medium was removed and fucosterol which was dissolved in the DMEM medium including 200 nM α-MSH was treated at 5 and 20 μM of concentrations, respectively. The cells after 24 hrs were lysed with a NP40 buffer solution including proteinase inhibitor cocktail and the protein amount extracted from the cells was quantified by using a Bradford reagent. The quantified protein was boiled for 5 min and isolated by electrophoresis with 10% SDS-PAGE to transfer the isolated proteins to a nitrocellular membrane. A primary antibody of […] and […] was diluted in 2.5% bovine serum albumin at a ratio of 1:1000 and reacted with the protein transferred to the nitrocellular membrane for 20 hrs at room temperature. The primary antibody was reacted and then the nitrocellular membrane was washed three times by using the TBST for 10 min. […] As the measured result, the protein expression of […] and […] was verified and it was shown that the loading amount of the protein was constant by α-tubulin.
On the technique in general: In western blotting, separated proteins are transferred to a membrane and probed.

Assay [3] concerns loricrin. The assay can be described thus: Loricrin protein expression (western blot) in HaCaT human keratinocytes. Conditions: HaCaT cells, fucosterol 5, 10, 20 μM, 24 hrs, FIG. 10. Here is the method: (§1) HaCaT human keratinocytes were incubated in a Dulbecco's Modified Eagle's Media (DMEM) medium including 10% fetal bovine serum and then put in a 6-well plate with 2×10^5 cell/ml (the final volume of 3 ml). After being incubated for 24 hrs, the medium was removed and fucosterol which was dissolved in the DMEM medium was treated at 5, 10, and 20 μM concentrations, respectively. After 24 hrs, the HaCaT human keratinocytes were lysed with a NP40 buffer solution including proteinase inhibitor cocktail. The protein amount extracted from the HaCaT human keratinocytes was quantified by using a Bradford method. The sample was boiled for 5 min and then the same amount of protein ([…]) was isolated by electrophoresis with 10% SDS-PAGE. The isolated proteins after electrophoresis were transferred to a nitrocellular membrane and western blot was performed. A primary antibody was reacted and the nitrocellular membrane was washed three times by using Tris-buffer saline tween20 (TBST) for 10 min. In this case, the kind and the dilution of the primary antibody used in the present invention is 1:1000. In a secondary antibody reaction, a secondary antibody was put in the membrane performing the primary antibody reaction and reacted for 2 hrs at room temperature. In this case, a dilution of the secondary antibody was 1:5000. […]

Assay [4] deals with caspase 14. Description: Caspase 14 protein expression (western blot) in HaCaT human keratinocytes. The conditions noted are these: HaCaT cells, fucosterol 5, 10, 20 μM, 24 hrs, FIG. 12. The procedure: as §1

`C/C=C(\CC[C@@H](C)[C@H]1CC[C@H]2[C@@H]3CC=C4C[C@@H](O)CC[C@]4(C)[C@H]3CC[C@]12C)C(C)C` [fucosterol]: the “inhibitory effect on tyrosinase activity” value in assay [1] was “very excellent inhibitory effect”. In addition, in assay [2], the “protein expression of TRP-2” value is on record as “reduced”. For the same compound, in assay [3], the “protein expression of loricrin” value is “increased”. Besides, the “protein expression of caspase 14” value in assay [4] is recorded as “increased”.

The record behind these values is patent US9956157B2, “Composition containing fucosterol for skin whitening or moisturizing” (INDUSTRY-ACADEMIC COOPERATION FOUNDATION, YONSEI UNIVERSITY, priority 2014, dated 2018).
